Measured values: the NIST ThermoML archive (doi:10.1016/j.fluid.2015.09.036)
Numbers after ± are expanded uncertainties.

Assay: wn = mass fraction of the nth substance listed
Settings: 101.3 kPa, Liquid, Vibrating tube method

| mass density (283.15 K, w1 = 0.1926) [kg/m3] | mass density (303.15 K, w1 = 0.4065) [kg/m3] | mass density (313.15 K, w1 = 0.5552) [kg/m3] | mass density (283.15 K, w1 = 0.06948) [kg/m3] | mass density (303.15 K, w1 = 0.1384) [kg/m3] | mass density (313.15 K, w1 = 0.1853) [kg/m3] | SMILES |
| --- | --- | --- | --- | --- | --- | --- |
| 967.2 ± 0.8 | 999.4 ± 1.6 | 1005.4 ± 1.8 |  |  |  | O=C(O)CCCC(=O)O [1,5-pentanedioic acid] + CCO |
|  |  |  | 841 ± 0.3 | 855.2 ± 0.5 | 876.9 ± 0.7 | O=C(O)CCCCC(=O)O [1,6-hexanedioic acid] + CCO |
